This note sets out measurements from ChEMBL document CHEMBL1201862, “PubChem BioAssay data set” (2004).

Common to all, as to test: inhibition of tumour cell growth, NCI panel, 48 h
The test system of assay [1] is HCT-116.
The subject of assay [2] is MDA-MB-435.
Assay [3] has as its system HCC 2998.
Assay [4] concerns OVCAR-5.
Assay [5] has as its system Hs-578T.
Assay [6] has as its system SF-539.
Assay [7] has as its system OVCAR-8.
Assay [8] has as its system HOP-92.
Assay [9] deals with RXF 393.
In assay [10] the test system is 786-0.
The subject of assay [11] is NCI-H226.
Assay [12] relates to SN12C.
The test system of assay [13] is MDA-N.
Assay [14] deals with MCF7.
In assay [15] the test system is UACC-62.
For assay [16], the system named is SNB-19.
The subject of assay [17] is U-251.
Assay [18] deals with HL-60.
In assay [19] the test system is MOLT-4.
Assay [20] relates to TK-10.

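Grown in 96-well plates, cells were treated for 48 hours with each compound at five concentrations. Insufficient inhibition: endpoint recorded as highest concentration tested. At the GI50, growth is halved.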 Active and inactive are the calls of the source. Rule as the data show it: active = GI50 up to about 1.1 µM and inactive = higher.

For the compound `C=CCc1cccc2cc(C(=O)Nc3ccccc3)c(=N)oc12`, the GI50 in assay [1] is 18.1 µM (inactive); in assay [2], 27.9 µM (inactive); in assay [3], 4.8 µM (inactive); in assay [4] it was 38.8 µM (inactive); in [5], 37.6 µM (inactive); in assay [6], 28.2 µM (inactive). Besides, the GI50 was > 100 µM (inactive) in [7]; > 100 µM (inactive) in assay [8]; > 100 µM (inactive) in assay [9]; 30.3 µM (inactive) in assay [10]; 36.6 µM (inactive) in assay [11]; 55.8 µM (inactive) in assay [12]. The GI50 is 70.6 µM (inactive) in assay [13]; 7.11 µM (inactive) in assay [14]; 41.1 µM (inactive) in assay [15]; > 100 µM (inactive) in assay [16]; > 100 µM (inactive) in [17]; > 100 µM (inactive) in [18]. Also, the GI50 in assay [19] is > 100 µM (inactive).

For the compound `COc1c(OC(C)=O)c(OC(C)=O)cc2c1-c1ccc(OC)c(=O)cc1C(NC(C)=O)CC2` (stereo not drawn), the GI50 in [1] was 0.0215 µM (active); in assay [2], < 0.01 µM (active); in assay [3], 0.0217 µM (active); in assay [4], 2.61 µM (inactive); in assay [5], < 0.01 µM (active); in assay [6], < 0.0122 µM (active). Besides, the GI50 was 0.0254 µM (active) in [7]; 0.0173 µM (active) in assay [8]; < 0.01 µM (active) in assay [9]; 0.027 µM (active) in assay [10]; 0.331 µM (active) in assay [11]; 0.0348 µM (active) in assay [12]. Moreover, the GI50 in assay [13] is < 0.01 µM (active); in [20], 2.7 µM (inactive); in assay [14] it was < 0.01 µM (active); in assay [15], < 0.01 µM (active); in [16] it was 0.0336 µM (active); in assay [17], 0.0321 µM (active). The values for the GI50 in assay [18] and in assay [19] were < 0.01 µM (active) and 0.0155 µM (active), respectively.

For `C=CCN1C(=O)/C(=C/c2cccs2)N=C1SC/C=C/C`, the GI50 is 26.3 µM (inactive) in assay [1]; 34.5 µM (inactive) in assay [2]; 48.3 µM (inactive) in assay [3]; 65.6 µM (inactive) in assay [4]; 32.7 µM (inactive) in assay [5]; 58.3 µM (inactive) in [6]. Moreover, the GI50 is 37.6 µM (inactive) in assay [7]; 24.6 µM (inactive) in [8]; 22.8 µM (inactive) in assay [9]; 36.8 µM (inactive) in assay [10]; > 100 µM (inactive) in assay [11]; 26.3 µM (inactive) in assay [12]. Further, the GI50 is 24.7 µM (inactive) in assay [13]; 92 µM (inactive) in assay [20]; 26.4 µM (inactive) in assay [14]; 32.4 µM (inactive) in assay [15]; 80.9 µM (inactive) in assay [16]; 37.7 µM (inactive) in [17]. For the same compound, the GI50 was 21.3 µM (inactive) in assay [18] and 14.7 µM (inactive) in [19].

As for `COc1cc(OC)c(/C=C\c2ccnc3ccccc23)c(OC)c1`, the GI50 is 2.5 µM (inactive) in assay [1]; 0.404 µM (active) in assay [2]; 9.31 µM (inactive) in assay [3]; 6.05 µM (inactive) in [4]; 2.64 µM (inactive) in assay [5]; 3.73 µM (inactive) in assay [6]. Besides, the GI50 is 3.51 µM (inactive) in [8]; 2.39 µM (inactive) in assay [9]; 5.53 µM (inactive) in assay [10]; 4.11 µM (inactive) in [11]; 4.71 µM (inactive) in assay [12]; 0.329 µM (active) in [13]. Besides, the GI50 in assay [20] is 4.61 µM (inactive); in assay [14] it was 0.569 µM (active); in assay [15] it was 2.49 µM (inactive); in assay [16], 5.5 µM (inactive); in assay [17], 3.81 µM (inactive); in [18], 0.347 µM (active). In assay [19], the GI50 was 3.56 µM (inactive).

Turning to `Cc1c2ncccc2c(C)c2c1[nH]c1ccc(O)cc12`, the GI50 in [1] was 4.59 µM (inactive); in assay [2], 7.64 µM (inactive); in assay [3] it was 6.3 µM (inactive); in [4], 11.3 µM (inactive); in assay [5], 1.08 µM (active); in assay [6], 6.55 µM (inactive). The GI50 is 4.35 µM (inactive) in [7]; 4.54 µM (inactive) in assay [8]; 2.9 µM (inactive) in [9]; 2.91 µM (inactive) in assay [10]; 6.68 µM (inactive) in assay [11]; 2.24 µM (inactive) in [12]. For the same compound, the GI50 was 4.93 µM (inactive) in assay [13]; 12.8 µM (inactive) in [20]; 2.65 µM (inactive) in [14]; 10.2 µM (inactive) in [15]; 6.61 µM (inactive) in [16]; 2.4 µM (inactive) in assay [17]. Besides, the GI50 in assay [18] is 2.32 µM (inactive); in [19], 0.478 µM (active).

Consider `C=C1C(=O)O[C@@H]2C[C@@H](C)[C@@H]3[C@@H](OC4OC(COC(C)=O)C(O)C(O)C4O)CC(=O)[C@@]3(C)C[C@H]12` (stereo partly drawn), for which the GI50 was 0.659 µM (active) in assay [1]; 2.26 µM (inactive) in [2]; 1.75 µM (inactive) in assay [3]; 3.54 µM (inactive) in assay [4]; 25.2 µM (inactive) in assay [5]; 2.42 µM (inactive) in assay [6]. Further, the GI50 in assay [7] is 1.36 µM (inactive); in assay [8] it was 0.902 µM (active); in [9], 1.85 µM (inactive); in [10], 0.396 µM (active); in [11], 11 µM (inactive); in [12] it was 1.54 µM (inactive). Also, the GI50 in assay [13] is 1.66 µM (inactive); in assay [20], 1.68 µM (inactive); in [14], 0.728 µM (active); in assay [15], 1.55 µM (inactive); in assay [16], 20.2 µM (inactive); in assay [17], 7.19 µM (inactive). For the same compound, the GI50 in assay [18] was 0.211 µM (active); in [19], 1.94 µM (inactive).

As to `CCN(CCCl)c1ccc(NC(=O)c2cc(C(=O)NCCN(C)C)cc(C(=O)Nc3ccc(N(CC)CCCl)cc3)c2)cc1`, the GI50 was 3.03 µM (inactive) in assay [1]; 8.32 µM (inactive) in [2]; 10.6 µM (inactive) in assay [3]; 16.5 µM (inactive) in assay [4]; 0.513 µM (active) in assay [5]; 1.62 µM (inactive) in assay [6]. The GI50 in assay [7] was 3.57 µM (inactive); in assay [8], 3.74 µM (inactive); in [9], 5.41 µM (inactive); in assay [10], 0.942 µM (active); in assay [11] it was 3.94 µM (inactive); in assay [12], 2.08 µM (inactive). The GI50 in assay [13] was 11.1 µM (inactive); in assay [20], 16.7 µM (inactive); in assay [14], 0.746 µM (active); in assay [15], 4.98 µM (inactive); in assay [16], 1.36 µM (inactive); in [17], 2.18 µM (inactive). Also, the results for the GI50 in assay [18] and in [19] were 0.0743 µM (active) and 0.151 µM (active), respectively.

As for `COC(=O)[C@@H]1COC(=O)N1`, the GI50 in assay [1], in assay [2], in assay [3], in assay [4], in assay [5] and in assay [6] was > 100 µM (inactive) throughout. For the same compound, the GI50 in [7], in assay [8], in assay [9], in assay [10], in assay [11] and in [12] was > 100 µM (inactive) in each case. Also, the GI50 in [13], in [20], in assay [14], in [15], in [16] and in assay [17] was > 100 µM (inactive) throughout. Moreover, the GI50 in [18] and in assay [19] was > 100 µM (inactive) throughout.

On to `[N-]=[N+]=NC1C(O)C(CO)OC1n1ccc(N)nc1=O` (stereo not drawn), for which the GI50 in [1] is > 172 µM (inactive); in assay [2], 44.3 µM (inactive); in [3], 46.7 µM (inactive); in assay [4] it was 245 µM (inactive); in assay [5] it was 532 µM (inactive); in assay [6], 165 µM (inactive). Besides, the GI50 is 55.5 µM (inactive) in assay [7]; 403 µM (inactive) in assay [8]; > 206 µM (inactive) in [9]; 118 µM (inactive) in [10]; > 625 µM (inactive) in [11]; 227 µM (inactive) in assay [12]. For the same compound, the GI50 in [13] was 93.1 µM (inactive); in [20] it was 175 µM (inactive); in assay [14], 24 µM (inactive); in assay [15], 147 µM (inactive); in assay [16], 18.2 µM (inactive); in assay [17] it was 195 µM (inactive). In addition, the GI50 in assay [18] was 3.83 µM (inactive); in assay [19], 2.3 µM (inactive).

Turning to `C[C@]12CCC(=O)[C@@H](CCC3=CC(=O)C=CC3=O)[C@@H]1CCC2=O`, the GI50 in [1] is 15.5 µM (inactive); in assay [2], 22 µM (inactive); in assay [3], 15.3 µM (inactive); in assay [4] it was 41.5 µM (inactive); in assay [5], 3.97 µM (inactive); in assay [6], 11.4 µM (inactive). Moreover, the GI50 in assay [7] is 16.1 µM (inactive); in assay [8], 14.2 µM (inactive); in [9], 1.9 µM (inactive); in assay [10] it was 10 µM (inactive); in [11] it was 20.7 µM (inactive); in [12] it was 37.4 µM (inactive). For the same compound, the GI50 is 23.8 µM (inactive) in [13]; 16 µM (inactive) in assay [20]; 13.9 µM (inactive) in [14]; 16.6 µM (inactive) in [15]; 41.5 µM (inactive) in [16]; 20.7 µM (inactive) in assay [17]. Besides, the figures for the GI50 in [18] and in assay [19] were 2.7 µM (inactive) and 5.21 µM (inactive), respectively.
